Assays:
[1] = porcine drug elution PK study of the dual drug eluting coating; type: in vivo; conditions: after eight (8) days of implantation; stent of FIG. 11 (sirolimus and cilostazol in one EVA/BMA layer, 100 μg BMA overcoat)
Source text: Another critical parameter for the performance of the thrombus resistance of a device coated with cilostazol is the duration of the drug release from the coating. This is of particular significance in the two weeks after device implantation. In the porcine drug elution PK studies of the dual drug eluting coating, both cilostazol and sirolimus were slowly released from the coating, resulting in a sustained drug release profile. The purpose of the porcine PK study is to assess the local pharmacokinetics of a drug eluting stent at a given implantation time. Normally three stents are implanted in three different coronary arteries in a pig for a given time point and then retrieved for total drug recovery analysis. The stents are retrieved at predetermined time points; namely, 1, 3 and 8 days. The stents are extracted and the total amount of drug remaining on the stents is determined by analysis utilizing HPLC (high performance liquid chromatography) for total drug amount. The difference between the original amount of drug on the stent and the amount of drug retrieved at a given time represents the amount of drug released in that period. The continuous release of drug into surrounding arterial tissue is what prevents the neointimal growth and restenosis in the coronary artery. A normal plot represents the percentage of total drug released (%, y-axis) vs. time of implantation (day, x-axis). […]

[2] = Source text: Referring to FIG. 29, there is illustrated the cumulative in vivo drug release percentages from a reservoir eluting stent for each drug over a thirty day period. Curve 2902 represents the profile for cilostazol while curve 2904 represents the profile for sirolimus. FIG. 30 is a graphical representation of the amount of each drug, in micrograms, released in vivo. Curve 3002 represents the profile for cilostazol while curve 3004 represents the profile for sirolimus. The curves in the figures illustrate that both the drugs elute independently of each other with minimal or substantially no interaction. […] Since the amount of drug (by weight) is different for the drugs in their respective reservoirs, the total amount of drug released at thirty (30) days was higher for sirolimus as compared to cilostazol.
[3] = in vitro release kinetics of sirolimus and cilostazol from coated stent; type: physicochemical; conditions: stent of FIG. 11 (sirolimus and cilostazol in one EVA/BMA layer, 100 μg BMA overcoat); FIG. 10
[4] = system: platelet deposition and thrombus formation on the stent surface; assay: in vitro bovine blood loop model; conditions: sirolimus/cilostazol combination coatings, FIG. 8
Source text: The anti-thrombotic efficacy of the above-described three configurations is illustrated in FIG. 8. FIG. 8 illustrates the anti-thrombotic properties of the sirolimus/cilostazol combination coatings described above in an in vitro bovine blood loop model. In the in vitro bovine blood loop model, fresh bovine blood is heparinized to adjust for […] (ACT) of about two hundred (200) seconds. The platelet content in the blood is labeled through the use of Indium 111. In the study, a stent is deployed in a silicone tube, which is part of a closed loop system for blood circulation. The heparinzed blood is circulated through the closed loop system by means of a circulating pump. Blood clots and thrombus builds up on a stent surface over time and reduces the flow rate of blood through the stented loop. The flow is stopped when the flow rate is reduced to fifty (50) percent of the starting value or at ninety (90) minutes if none of the tested stent reduces the flow by fifty (50) percent. The total radioactivity (In 111) on the stent surface is counted by a […] and normalized with the control unit, set as one hundred (100) percent in the chart. […]

Compound	drug remained in the drug coating [1]	cumulative in vivo elution [2]	in vitro release [3]	thrombus formation [4]
CO[C@H]1C[C@@H]2CC[C@@H](C)[C@@](O)(O2)C(=O)C(=O)N2CCCC[C@H]2C(=O)O[C@H]([C@H](C)C[C@@H]2CC[C@@H](O)[C@H](OC)C2)CC(=O)[C@H](C)/C=C(\C)[C@@H](O)[C@@H](OC)C(=O)[C@H](C)C[C@H](C)/C=C/C=C/C=C/1C [Rapamycin]	~80%	sixty (60) to seventy (70)	–	–
O=C1CCc2cc(OCCCCc3nnnn3C3CCCCC3)ccc2N1 [cilostazol, 6[4-(1-cyclohexyl-1H-tetrazol-5-yl)-butoxy]-3,4-dihydro-2-(1H)-quinolinone]	~80%	sixty (60) to seventy (70)	~35%	significantly reduces thrombus formation

From patent US9327060B2 (CARDINAL HEALTH SWITZERLAND 515 GmbH, priority 2009, dated 2016)
